Results published in patent US8129527B2, “Analogs of dehydrophenylahistins and their therapeutic use” (Nereus Pharmacuticals, Inc., priority 2006, dated 2012).
Where two headings read alike, the source gives them in different places.

Legend:
HT-29 human colon cells = test: Tumor cytotoxicity assay, resazurin fluorescence, 48 h (Example 6); type: cell-based; details: Homo sapiens
[1] = test system: B16-F10 (murine melanoma); test: Tumor panel screen cytotoxicity (Example 10A); type: cell-based
Text: (§1) Cells were maintained at subconfluent densities in their respective culture media.

[2] = test system: CCD-27sk (normal human fibroblast); test: Tumor panel screen cytotoxicity (Example 10A); type: cell-based; details: CCD-27sk Fibroblast
Text: as §1

HT29 (human colon tumor) = test: Tumor panel screen cytotoxicity (Example 10A); type: cell-based
Text: as §1

[3] = test system: MDA-MB-231 (human breast tumor); test: Tumor panel screen cytotoxicity (Example 10A); type: cell-based; details: MDA-MB-231 Breast
Text: as §1

[4] = test system: NCI-H292 (human non-small cell lung tumor); test: Tumor panel screen cytotoxicity (Example 10A); type: cell-based; details: maximum cytotoxic effect
Text: as §1

[5] = test system: OVCAR-3 (human ovarian tumor); test: Tumor panel screen cytotoxicity (Example 10A); type: cell-based; details: OVCAR-3 Ovary
Text: as §1

[6] = test system: PC3 (human prostate tumor); test: Tumor panel screen cytotoxicity (Example 10A); type: cell-based; details: PC-3 Prostate
Text: as §1

[7] = test system: HL-60 (Mitoxantrone-Sensitive) human acute promyelocytic leukemia; test: Drug resistant cell line pair, cytotoxicity (Example 10B); type: cell-based; details: HL-60 Sensitive
Text: (§2) 2) Human Acute Promyelocytic Leukemia Cell Line Pair: HL-60 (Mitoxantrone-Sensitive) and HL-60/MX-2 (Mitoxantrone-Resistant)

[8] = test system: HL-60/MX-2 (Mitoxantrone-Resistant); test: as above; type: cell-based, human; details: Homo sapiens, HL60/MX2; HL-60 Resistant (HL-60/MX-2)
Text: as §2

Jurkat cells = test: cells; type: cell-based; details: Jurkat cells
HT-29 human colon tumor = test: HT-29 Human Colon Tumor Xenograft Model; type: in vivo
Procedure, shortened: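 Nude mice bearing s.c. trocar-implanted HT-29 fragments were grouped at 5 mm×5 mm tumours and dosed i.p.; in combinations, reference chemotherapy was given 15-30 min before compound. Caliper measurements twice weekly were converted to tumour weight as (W^2×L)/2, with study end when control tumours averaged 1000 mg.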

MCF-7 human breast tumor = test: MCF-7 Human Breast Tumor Xenograft Model; type: in vivo, nude mice; details: in combination with taxotere
Procedure, shortened: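 Female nu/nu mice (~20 g, 5–6 wk) given 21-day estrogen pellets (0.25 mg) s.c. 24 h before s.c. MCF-7 tumor fragment implantation; 9–10 mice/group. Compounds dosed i.p. (qdx5 Days 1–5, or Days 1, 2, 3, 4, 7); taxotere i.v. (Days 1, 3, 5 or 1, 3, 7), given 15–30 min before compound in combinations.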

[9] = test system: MDA-231 human breast tumor; test: MDA-231 Human Breast Tumor Orthotopic Xenograft Model (mammary fat pad); type: in vivo, nude mice; details: KPU-2 7.5 mg/kg ip q3dx5 with paclitaxel 16 mg/kg ip qdx5, three weeks
Protocol: (§3) The animals used were: female nude mice (nu/ni) (MDA-231 study) or B6D2F1 (B16-F10 studies) mice between 5 and 6 weeks of age (˜20 g, Harlan); group size was 10 mice per group unless otherwise indicated.
(§4) The cell lines used were: MDA-MB-231 human breast tumor and B16-F10 murine melanoma cells.
(§5) NPI compounds were administered as monotherapy via the intraperitoneal route at the doses indicated for the individual study; for the combination studies the selected reference chemotherapy agents were injected 15-30 min prior to the NPI compound.
Female nude mice were injected in the mammary fat pad with 2×10^6 MDA-231 cells harvested from in vitro cell culture. When the tumor size reached 5 mm×5 mm (about 14-28 days) the animals were matched into treatment and control groups. The study then proceeded as described for the HT-29 model, using paclitaxel as the standard chemotherapy agent.
In this model unless otherwise noted for the individual study, the test compounds were administered via the intraperitoneal route on Days 1, 4, 8, 11 and 15 (q3dx5); paclitaxel was administered via the intraperitoneal route on Days 1-5 (qdx5).
This model involves the placement of the human tumor tissue into the mouse mammary fat pad, a surrogate of the natural environment. In this manner the possibility of a positive effect due to a specific action on the subcutaneous vascular bed is avoided.

[10] = test system: B16-F10 murine melanoma cells; test: B16-F10 Metastatic Murine Melanoma Model; type: in vivo, B6D2F1 mice; details: monotherapy, lung surface metastases day 16
Protocol: as §3, §4, §5
Mice received B16-F10 cells (prepared from an in vitro cell culture of B16-F10 cells) by the iv route on Day 0. On Day 1 mice were randomized into treatment and control groups and treatment commenced. Mice were weighed twice weekly, starting on Day 1. All mice are sacrificed on Day 16, the lungs removed, weighed and the surface colonies counted. Results are expressed as mean colonies of treated mice/mean colonies of control mice (T/C)×100%). The metastasis growth inhibition (MGI) is this number subtracted from 100%. Paclitaxel was the standard chemotherapy agent used in this study.
In this model unless otherwise noted for the individual study, the test compounds were administered via the intraperitoneal route on Days 1-5 (qdx5); paclitaxel was administered intravenously on Days 1-5(qdx5).

JNK3 (rat) = JNK3 (rat) (Rattus norvegicus, UniProt P49187); details: ATP 10 μM
JNK3 (rat), sequence (P49187 whole entry): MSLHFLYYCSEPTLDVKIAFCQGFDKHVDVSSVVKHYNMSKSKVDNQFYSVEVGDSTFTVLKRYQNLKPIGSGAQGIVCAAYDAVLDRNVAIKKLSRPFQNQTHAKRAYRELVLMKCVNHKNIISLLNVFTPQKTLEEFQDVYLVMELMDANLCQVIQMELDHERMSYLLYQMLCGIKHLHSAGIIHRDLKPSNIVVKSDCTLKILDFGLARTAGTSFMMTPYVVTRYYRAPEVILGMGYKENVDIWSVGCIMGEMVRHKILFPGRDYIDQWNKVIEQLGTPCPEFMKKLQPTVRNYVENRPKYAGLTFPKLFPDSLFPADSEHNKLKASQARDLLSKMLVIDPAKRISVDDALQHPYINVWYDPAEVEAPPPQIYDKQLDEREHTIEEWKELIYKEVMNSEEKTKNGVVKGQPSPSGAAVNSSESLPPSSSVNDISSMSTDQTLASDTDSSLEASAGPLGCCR

Lyn (mouse) = Lyn (mouse) (Mus musculus, UniProt P25911); details: ATP 10 μM
Lyn (mouse), sequence (P25911 whole entry): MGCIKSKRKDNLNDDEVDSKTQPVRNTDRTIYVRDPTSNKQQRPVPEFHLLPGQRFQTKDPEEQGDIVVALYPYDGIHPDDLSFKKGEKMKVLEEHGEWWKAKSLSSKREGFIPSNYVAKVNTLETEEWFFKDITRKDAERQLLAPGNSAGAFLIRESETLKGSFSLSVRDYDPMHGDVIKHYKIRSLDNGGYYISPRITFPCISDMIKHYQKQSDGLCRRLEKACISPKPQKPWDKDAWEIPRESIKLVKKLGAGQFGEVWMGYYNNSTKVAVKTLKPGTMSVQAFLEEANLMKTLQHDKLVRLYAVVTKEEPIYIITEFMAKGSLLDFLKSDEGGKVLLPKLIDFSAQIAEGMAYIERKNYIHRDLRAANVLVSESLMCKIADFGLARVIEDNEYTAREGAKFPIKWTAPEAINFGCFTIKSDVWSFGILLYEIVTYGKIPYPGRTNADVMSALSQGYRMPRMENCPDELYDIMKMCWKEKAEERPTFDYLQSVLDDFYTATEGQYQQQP

SMILES: CC(C)(C)c1[nH]cnc1/C=c1\[nH]c(=O)/c(=C/c2ccccc2)[nH]c1=O [KPU-2, tBu-dehydro-PLH]
- EC50 (HT-29 human colon cells; HT-29, Table 6, proliferation of HT-29 cells): 13 nM
- EC50 (HT-29 human colon cells; HT-29, Table 9, summary of modification at the o-position, HT-29): 48 nM
- EC50 (HT-29 human colon cells; HT-29, Table 10, summary of modification at the m-position, HT-29): 48 nM
- EC50 (HT-29 human colon cells; HT-29, read-out: EC50 (nM) HT-29, Table 2): 13 nM
- EC50 (HT-29 human colon cells; HT-29, read-out: EC50 (nM) HT-29, Table 3): 13 nM
- EC50 (HT-29 human colon cells; HT-29, Table 5, synthetic potent dehydroPLH derivatives): 13 nM
- IC50 ([1]; Mus musculus): 37.1 nM
- % Cytotoxicity Mean ([1]; maximum cytotoxic effect): 71.8%
- % Cytotoxicity Mean ([2]; maximum cytotoxic effect): 64.3%
- IC50 ([2]; Homo sapiens): 9.2 nM
- % Cytotoxicity Mean (HT29 (human colon tumor); HT-29 Colon, maximum cytotoxic effect): 82.5%
- IC50 (HT29 (human colon tumor); Homo sapiens, HT-29 Colon): 9.8 nM
- potency on the HT-29 tumor cell line (HT29 (human colon tumor); in words): low nanomolar range
- IC50 ([3]; Homo sapiens): 13.8 nM
- % Cytotoxicity Mean ([3]; maximum cytotoxic effect): 56.7%
- % Cytotoxicity Mean [4]: 70.5%
- IC50 ([5]; Homo sapiens): > 20000 nM
- % Cytotoxicity Mean ([5]; maximum cytotoxic effect): 45.8%
- IC50 ([6]; Homo sapiens): 13.4 nM
- % Cytotoxicity Mean ([6]; maximum cytotoxic effect): 60.3%
- IC50 [7]: 6.4 nM
- IC50 [8]: 8.17 nM
- Cytotoxicity Efficacy % Cell Death (Jurkat cells): 94%
- Comments (combination with CPT-11) (HT-29 human colon tumor; NPI compound + CPT-11 100 ip qwx3, study and dose as in the line): Synergy
- NPI-Compound Result TGI % (HT-29 human colon tumor; Study 2139, monotherapy 7.5 mg/kg ip q3dx5): No Effect
- NPI-Compound Result TGI % (HT-29 human colon tumor; Study 2164, monotherapy 7.5 mg/kg ip q3dx5): No Effect
- NPI-Compound Result TGI % (HT-29 human colon tumor; Study 2164, monotherapy 7.5 mg/kg ip qdx5): No Effect
- NPI-Compound Result TGI % (HT-29 human colon tumor; Study 2288, monotherapy 10→7.5 mg/kg ip q3dx5): No Effect
- Exceed NCI Criterion (TGI ≧ 58%) (HT-29 human colon tumor; which treatment group exceeds the criterion, NPI compound, CPT-11 100 ip qwx3 or combination, study and dose as in the line): Combination
- effect on estimated tumor growth (MCF-7 human breast tumor): appeared to be the most effective
- inhibition of tumor growth [9]: significant inhibition of tumor growth
- MGI (metastasis growth inhibition) [10]: 41.6%
- IC50 (JNK3 (rat)): 6800 nM
- IC50 (Lyn (mouse)): 11100 nM
